Measured values reported in EP4623912A1, “A METHOD FOR DEFATTENING A STEATOTIC LIVER EX VIVO” (ETH Zurich, priority 2024, dated 2025).

Legend:
[1] = tested on: male C57BL/6N wild-type mice; assay: HFD-induced hepatic steatosis (NAFLD) mouse model; type: in vivo; settings: HFD 12 weeks
Procedure: Male mice were used for NAFLD induction via feeding on HFD. ROSA26-LSL-spCas9 mice were injected with AAV-U6-Cu/7 gRNAs-TBG-Cre and AAV-U6-Fbxw8 gRNAs-TBG-Cre virus pools at a dose of 3×10^11 genome copies/mouse and fed in HFD for 12 weeks and livers were harvested after 6 hours fasting. To study PI4KB in NAFLD progression, male ROSA26-LSL-spCas9 mice were fed in HFD for 12 weeks to induce fatty liver before induction of hepatocyte specific depletion of PI4KB via intravenous administration of AAV8. After another 8 weeks, mice were dissected to harvest liver after 6 hours fasting. Likewise, male C57BL/6N wild-type mice and liver specific Atgl knockout mice (AtgILKO) were challenged with HFD for 12 weeks to induce fatty liver prior to administration of UCB9608 mixed in HFD (5 mg/kg) for another 8 weeks. Then the mice were dissected to harvest tissues and sample blood after 6 hours fasting Atgl floxed mice (The Jackson Lab strain) were crossed with Albumin-Cre (The Jackson Lab strain) and Adip-CreERT2 strains to obtain Alb-Atgfl^fl/fl and AdipcreERT2-Atgl^fl/fl mice (Sitnick,M.T. et al, Diabetes 62, (2013)), which deplete ATGL protein in the liver and the adipose depots (induced after tamoxifen gavage), respectively. Male mice from both strains were injected with 2-DG (2 g/kg BW) to induce glucose deprivation for 6 hours prior to tissue and blood harvesting.
Adipose depots, liver pieces, differentiated iBAs, HepG2, HEK293T and HEK293-AAV cell types were homogenized in RIPA buffer (50 mM Tris-HCl pH 7.4, 150 mM NaCl, 2 mM EDTA, 1.0% Triton X100, 0.5% sodium deoxycholate) with protease inhibitors (Complete, Roche) and phosphatase inhibitors (Halt phosphatase inhibitor cocktail, ThermoFisher). The homogenates were centrifuged at 12,000×g for 10 min at 4°C to remove debris and collect whole cell extract (WCE). The concentration of WCE was determined by DC Protein Assay (Bio-Rad). After boiling the sample with Lämmeli buffer at 95°C for 5 min, equal amount of proteins was loaded and separated on 12% SDS-PAGE. The proteins were transferred to nitrocellulose membrane and blotted by ATGL (1:1000, Cell Signaling), CGI-58 (1:1000, Proteintech), phospho-HSL(Ser660) (1:1000, Cell Signaling), PLIN1 (1:1000, Cell Signaling), HSL (1:1000, Cell Signaling), γ-tubulin (1:10000, Sigma), FLAG (1:10000, Sigma; 1:1000, Cell Signaling), MGL (1:1000, Abcam), HA (1:1000, Cell signaling), FBXW8 (1:100, Santa Cruz; 1:1000, Sigma), CUL7 (1:100, Santa Cruz), HSP90 (1:1000, Cell Signaling), K48 polyubiquitin (1:1000, Cell signaling), PI4KB (1:1000, Sigma), SACM1L (1:1000, Sigma), AKT1 (1:1000, Cell Signaling), phospho-AKT1(Ser473) (1:1000, Cell Signaling), TGN46 (1:1000, Abcam), MAOA (1:1000, Abcam), PLIN2 (1:1000, Abcam), PMP70 (1:10000, Sigma), Calnexin (1:1000, Cell Signaling), ARF1 (1:1000, Invitrogen), GAPDH (1:1000, Cell Signaling), RAB7 (1:1000, Cell Signaling), alpha 1 Sodium Potassium ATPase (1:1000, Abcam), Cleaved Caspase-3 (1:1000, Cell Signaling), phospho-AMPKα (Thr172) (1:1000, Cell Signaling), AMPKα (1:1000, Cell Signaling) and GM130 (1:1000, Proteintech). […]
Plasma collected from mice under different conditions was used to determine levels of lipolysis and liver injury. FFA levels were measured via NEFA assay kit (Wako NEFA kit). TG levels were determined via TG assay kit (Roche Trig/GB reagent). […] The absorbance was monitored using Synergy Gen5 Platereader.
Weight of liver pieces (50-100 mg) was recorded before homogenization by 1 mL isopropanol per 50 mg tissue. […]

[2] = Precipitation of DMSO solution on mixing with water; type: physicochemical; settings: dissolved in DMSO, not circulated
[3] = then UCB9608 in HFD (5 mg/kg) 8 weeks, vs DMSO

COc1ccc(NC(=O)N2CCN(c3nc(N)nc4c3cnn4C)[C@@H](C)C2)c(C)c1 [UCB9608]
ATGL protein levels in the gWAT [1, 3]: significantly greater
ATGL protein levels in the iBAT [1, 3]: significantly greater
ATGL protein levels in the liver [1, 3]: significantly greater
hepatic steatosis (hepatic TG levels) ([1]; then UCB9608 in HFD (5 mg/kg) 8 weeks, requires ATGL in the liver (Fig. 6h)): substantially attenuated
plasma FFA levels ([1]; then UCB9608 mixed in HFD (5 mg/kg) 8 weeks, vs DMSO (Fig. 6g)): significantly increased
behaviour of DMSO solution mixed with water [2]: precipitated
